Measured values reported in article PMC5724930 (Biochemistry, 2017).

What was measured:
[1] = target: T1, PanZ (Escherichia coli, UniProt P37613); assay: ITC; also […] Å crystal structure of the PanD–PanZ·AcCoA complex; format: binding
T1 construct: PanZ(WT)

[2] = target: T2, PanZ (Escherichia coli, UniProt P37613, R73A); assay: ITC; format: binding
T2 construct: PanZ(R73A)
T2 sequence (P37613 whole entry R73A): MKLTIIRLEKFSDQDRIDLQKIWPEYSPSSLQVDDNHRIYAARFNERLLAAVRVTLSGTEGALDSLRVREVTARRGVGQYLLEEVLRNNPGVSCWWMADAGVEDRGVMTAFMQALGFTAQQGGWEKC

T1 sequence (P37613 whole entry): as the sequence (P37613 whole entry R73A) above, with A73R counted along it

CC(=O)SCCNC(=O)CCNC(=O)[C@H](O)C(C)(C)COP(=O)(O)OP(=O)(O)OC[C@H]1O[C@@H](n2cnc3c(N)ncnc32)[C@H](O)[C@@H]1OP(=O)(O)O [AcCoA]
Kd [1]: 0.524 ± 0.064 µM | Kd [2]: 220 ± 30 µM
